# Experimental data as given in patent US10251395B2, “Substituted furano-/thienocycloalkylamino-2-pyrimidine derivatives and use thereof for controlling undesired plant growth” (Bayer CropScience Aktiengesellschaft, priority 2015, dated 2019).
# What was measured:
# Assay type in all cases: in vivo
# Abutilon theophrasti [1] = experiment: Pre-emergence herbicidal effect; settings: scored visually after 3 weeks
# In short: (§1)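 Visual damage score in % after 3 weeks in the greenhouse, relative to untreated controls (0% like control, 100% plants dead). Compounds were sprayed pre-emergence onto covering soil over seeds sown in sandy loam, as WP or EC in water at 600 to 800 L/ha plus 0.2% wetting agent.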
# Alopecurus myosuroides [2] = experiment: Pre-emergence herbicidal effect; settings: scored visually after 3 weeks
# In short: as §1
# Amaranthus retroflexus [3] = experiment: Pre-emergence herbicidal effect; settings: scored visually after 3 weeks
# In short: as §1
# Cyperus esculentus = experiment: Pre-emergence herbicidal effect; settings: Dosage 320 g/ha, scored visually after 3 weeks
# In short: as §1
# Echinochloa crus-galli [4] = experiment: Pre-emergence herbicidal effect; settings: scored visually after 3 weeks
# In short: as §1
# Matricaria inodora [5] = experiment: Pre-emergence herbicidal effect; settings: scored visually after 3 weeks
# In short: as §1
# Polygonum convolvulus [6] = experiment: Pre-emergence herbicidal effect; settings: scored visually after 3 weeks
# In short: as §1
# Setaria viridis [7] = experiment: Pre-emergence herbicidal effect; settings: scored visually after 3 weeks
# In short: as §1
# Stellaria media [8] = experiment: Pre-emergence herbicidal effect; settings: scored visually after 3 weeks
# In short: as §1
# Veronica persica [9] = experiment: Pre-emergence herbicidal effect; settings: scored visually after 3 weeks
# In short: as §1
# Viola tricolor [10] = experiment: Pre-emergence herbicidal effect; settings: scored visually after 3 weeks
# In short: as §1
# Abutilon theophrasti [11] = experiment: Post-emergence herbicidal effect; settings: assessed visually after about 3 weeks vs untreated controls
# In short: (§2)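 Percent herbicidal action was judged by eye roughly 3 weeks post-application, 0% matching control plants and 100% meaning plant death. Seedlings, greenhouse-grown in sandy loam, received the spray at one leaf.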
# Alopecurus myosuroides [12] = experiment: Post-emergence herbicidal effect; settings: 320 g/ha, assessed visually after about 3 weeks vs untreated controls
# In short: as §2
# Amaranthus retroflexus [13] = experiment: Post-emergence herbicidal effect; settings: assessed visually after about 3 weeks vs untreated controls
# In short: as §2
# Echinochloa crus-galli [14] = experiment: Post-emergence herbicidal effect; settings: assessed visually after about 3 weeks vs untreated controls
# In short: as §2
# Lolium multiflorum [15] = experiment: Post-emergence herbicidal effect; settings: 320 g/ha, assessed visually after about 3 weeks vs untreated controls
# In short: as §2
# Setaria viridis [16] = experiment: Post-emergence herbicidal effect; settings: assessed visually after about 3 weeks vs untreated controls
# In short: as §2
# Stellaria media [17] = experiment: Post-emergence herbicidal effect; settings: assessed visually after about 3 weeks vs untreated controls
# In short: as §2
# Veronica persica [18] = experiment: Post-emergence herbicidal effect; settings: assessed visually after about 3 weeks vs untreated controls
# In short: as §2
# Viola tricolor [19] = experiment: Post-emergence herbicidal effect; settings: assessed visually after about 3 weeks vs untreated controls
# In short: as §2
# Avena fatua = experiment: Pre-emergence herbicidal effect; settings: Dosage 320 g/ha, scored visually after 3 weeks
# In short: as §1
# Ipomoea purpurea [20] = experiment: Pre-emergence herbicidal effect; settings: scored visually after 3 weeks
# In short: as §1
# Lolium multiflorum [21] = experiment: Pre-emergence herbicidal effect; settings: Dosage 320 g/ha, scored visually after 3 weeks
# In short: as §1
# Ipomoea purpurea [22] = experiment: Post-emergence herbicidal effect; settings: assessed visually after about 3 weeks vs untreated controls
# In short: as §2
# Matricaria inodora [23] = experiment: Post-emergence herbicidal effect; settings: assessed visually after about 3 weeks vs untreated controls
# In short: as §2
# Polygonum convolvulus [24] = experiment: Post-emergence herbicidal effect; settings: 320 g/ha, assessed visually after about 3 weeks vs untreated controls
# In short: as §2
Structure (SMILES),ABUTH pre-emergence efficacy (herbicidal activity) (Abutilon theophrasti [1]; Dosage 320 g/ha) [%],ALOMY pre-emergence efficacy (herbicidal activity) (Alopecurus myosuroides [2]; Dosage 320 g/ha) [%],AMARE pre-emergence efficacy (herbicidal activity) (Amaranthus retroflexus [3]; Dosage 80 g/ha) [%],AMARE pre-emergence efficacy (herbicidal activity) (Amaranthus retroflexus [3]; Dosage 320 g/ha) [%],ECHCG pre-emergence efficacy (herbicidal activity) (Echinochloa crus-galli [4]; Dosage 320 g/ha) [%],MATIN pre-emergence efficacy (herbicidal activity) (Matricaria inodora [5]; Dosage 80 g/ha) [%],MATIN pre-emergence efficacy (herbicidal activity) (Matricaria inodora [5]; Dosage 320 g/ha) [%],POLCO pre-emergence efficacy (herbicidal activity) (Polygonum convolvulus [6]; Dosage 320 g/ha) [%],SETVI pre-emergence efficacy (herbicidal activity) (Setaria viridis [7]; Dosage 80 g/ha) [%],SETVI pre-emergence efficacy (herbicidal activity) (Setaria viridis [7]; Dosage 320 g/ha) [%],STEME pre-emergence efficacy (herbicidal activity) (Stellaria media [8]; Dosage 80 g/ha) [%],STEME pre-emergence efficacy (herbicidal activity) (Stellaria media [8]; Dosage 320 g/ha) [%],VERPE pre-emergence efficacy (herbicidal activity) (Veronica persica [9]; Dosage 80 g/ha) [%],VERPE pre-emergence efficacy (herbicidal activity) (Veronica persica [9]; Dosage 320 g/ha) [%],VIOTR pre-emergence efficacy (herbicidal activity) (Viola tricolor [10]; Dosage 80 g/ha) [%],VIOTR pre-emergence efficacy (herbicidal activity) (Viola tricolor [10]; Dosage 320 g/ha) [%],post-emergence efficacy ABUTH (Abutilon theophrasti [11]; 320 g/ha) [%],post-emergence efficacy VIOTR (Viola tricolor [19]; 80 g/ha) [%],post-emergence efficacy VIOTR (Viola tricolor [19]; 320 g/ha) [%],PHBPU pre-emergence efficacy (herbicidal activity) (Ipomoea purpurea [20]; Dosage 320 g/ha) [%],other results
Cc1cc2c(s1)C(Nc1ncc(S(C)(=O)=O)c(N)n1)CCC2 (racemic) [compound 19],100,100,100,100,100,100,100,80,100,100,100,100,100,100,100,100,90,90,100,–,ABUTH pre-emergence efficacy (herbicidal activity) (Abutilon theophrasti [1]; Dosage 80 g/ha): 80%; CYPES pre-emergence efficacy (herbicidal activity) (Cyperus esculentus): 80%; ECHCG pre-emergence efficacy (herbicidal activity) (Echinochloa crus-galli [4]; Dosage 80 g/ha): 100%; post-emergence efficacy ABUTH (Abutilon theophrasti [11]; 80 g/ha): 90%; post-emergence efficacy ALOMY (Alopecurus myosuroides [12]): 90%; post-emergence efficacy AMARE (Amaranthus retroflexus [13]; 80 g/ha): 80%; post-emergence efficacy AMARE (Amaranthus retroflexus [13]; 320 g/ha): 90%; post-emergence efficacy ECHCG (Echinochloa crus-galli [14]; 80 g/ha): 100%; post-emergence efficacy ECHCG (Echinochloa crus-galli [14]; 320 g/ha): 100%; post-emergence efficacy LOLMU (Lolium multiflorum [15]): 80%; post-emergence efficacy SETVI (Setaria viridis [16]; 80 g/ha): 90%; post-emergence efficacy SETVI (Setaria viridis [16]; 320 g/ha): 100%; post-emergence efficacy STEME (Stellaria media [17]; 80 g/ha): 80%; post-emergence efficacy STEME (Stellaria media [17]; 320 g/ha): 100%; post-emergence efficacy VERPE (Veronica persica [18]; 80 g/ha): 90%; post-emergence efficacy VERPE (Veronica persica [18]; 320 g/ha): 100%
CS(=O)(=O)c1cnc(NC2CCCc3sccc32)nc1N (racemic) [compound 23],–,80,100,100,100,100,100,100,–,100,100,100,100,100,100,100,–,80,100,100,AVEFA pre-emergence efficacy (herbicidal activity) (Avena fatua): 90%; LOLMU pre-emergence efficacy (herbicidal activity) (Lolium multiflorum [21]): 100%; POLCO pre-emergence efficacy (herbicidal activity) (Polygonum convolvulus [6]; Dosage 80 g/ha): 100%; post-emergence efficacy AMARE (Amaranthus retroflexus [13]; 80 g/ha): 80%; post-emergence efficacy AMARE (Amaranthus retroflexus [13]; 320 g/ha): 80%; post-emergence efficacy ECHCG (Echinochloa crus-galli [14]; 320 g/ha): 80%; post-emergence efficacy PHBPU (Ipomoea purpurea [22]; 80 g/ha): 80%; post-emergence efficacy PHBPU (Ipomoea purpurea [22]; 320 g/ha): 80%; post-emergence efficacy LOLMU (Lolium multiflorum [15]): 80%; post-emergence efficacy MATIN (Matricaria inodora [23]; 80 g/ha): 80%; post-emergence efficacy MATIN (Matricaria inodora [23]; 320 g/ha): 100%; post-emergence efficacy POLCO (Polygonum convolvulus [24]): 80%; post-emergence efficacy STEME (Stellaria media [17]; 320 g/ha): 90%; post-emergence efficacy VERPE (Veronica persica [18]; 80 g/ha): 90%; post-emergence efficacy VERPE (Veronica persica [18]; 320 g/ha): 90%
CCOC(=O)c1cnc(NC2CCCc3sc(C)cc32)nc1C (racemic) [compound 240],70,–,–,80,–,90,100,70,90,100,100,100,100,100,70,100,–,–,–,10,LOLMU pre-emergence efficacy (herbicidal activity) (Lolium multiflorum [21]): 60%; POLCO pre-emergence efficacy (herbicidal activity) (Polygonum convolvulus [6]; Dosage 80 g/ha): 70%
C/C(=N/OCc1ccccc1)c1cnc(NC2CCCc3sc(C)cc32)nc1N (racemic) [compound 291],–,90,–,100,80,100,100,70,90,100,100,100,100,100,90,100,90,80,80,100,ALOMY pre-emergence efficacy (herbicidal activity) (Alopecurus myosuroides [2]; Dosage 80 g/ha): 60%; LOLMU pre-emergence efficacy (herbicidal activity) (Lolium multiflorum [21]): 60%; post-emergence efficacy ABUTH (Abutilon theophrasti [11]; 80 g/ha): 80%; post-emergence efficacy AMARE (Amaranthus retroflexus [13]; 320 g/ha): 80%; post-emergence efficacy MATIN (Matricaria inodora [23]; 320 g/ha): 80%; post-emergence efficacy SETVI (Setaria viridis [16]; 80 g/ha): 60%; post-emergence efficacy SETVI (Setaria viridis [16]; 320 g/ha): 80%; post-emergence efficacy VERPE (Veronica persica [18]; 320 g/ha): 60%
Cc1cc2c(s1)CCCC2Nc1nc(N)c(-c2cccc(F)c2)c(C(F)F)n1 (racemic) [compound 302],80,70,100,100,100,90,100,100,70,100,100,100,–,–,–,–,60,90,90,80,PHBPU pre-emergence efficacy (herbicidal activity) (Ipomoea purpurea [20]; Dosage 80 g/ha): 60%; POLCO pre-emergence efficacy (herbicidal activity) (Polygonum convolvulus [6]; Dosage 80 g/ha): 70%; post-emergence efficacy STEME (Stellaria media [17]; 320 g/ha): 80%
